Values after ≈ are worked out from the molar mass of the structure shown.
Tests used:
E. coli [1] = experiment: Post antibiotic effect (PAE); format: cell-based, Escherichia coli; conditions: for Time for 1 log10: untreated control 2 h
E. coli [2] = experiment: Checkerboard synergy with FDA approved drugs; format: cell-based, Escherichia coli
[3] = tested on: Bacillus subtilis (NCIM 2545); design: method as in Yele et al., 2020, 2021; conditions: ref Yele et al., 2020, 2021; cited from earlier work
[4] = tested on: Escherichia coli (NCIM 2065); experiment: Antibacterial susceptibility test, microbroth dilution MIC; format: cell-based; conditions: E. Coli (NCIM 2065); mean ± SD
[5] = tested on: Staphylococcus epidermis (NCIM 2493); design: method as in Yele et al., 2020, 2021; conditions: ref Yele et al., 2020, 2021; cited from earlier work
[6] = tested on: Escherichia coli (NCIM 2065); experiment: Minimum bactericidal concentration (MBC); format: cell-based; conditions: E. Coli (NCIM 2065); for MBC/MIC: ratio ≤2 bactericidal, ≥4 tolerance
Experimental: (§1) MBC can be defined as the minimum concentration of a compound required to kill the bacteria over a fixed period under precise conditions. […] Colonies were counted, and colony forming unit (CFU) per milliliter was calculated.

[7] = tested on: Pseudomonas aeruginosa (NCIM 2036); design: method as in Yele et al., 2020, 2021; conditions: ref Yele et al., 2020, 2021; cited from earlier work
[8] = tested on: Mycobacterium tuberculosis (NCIM 2984); design: method as in Yele et al., 2020, 2021; conditions: ref Yele et al., 2020, 2021; cited from earlier work
E. coli ParE enzyme = target: T1, E. coli ParE enzyme (Escherichia coli, UniProt P20083); experiment: E. coli ParE ATPase enzyme inhibition assay (ProFoldin kit, malachite green); format: biochemical; conditions: ATPase activity, mean ± SD (n = 3)
T1 construct: purchased ProFoldin, Hudson, United States
Experimental: The assay was performed as per the standard protocol provided by the ProFoldin. […] ParE hydrolyzes ATP as the source of molecular energy to perform decatenation reactions. Fluoroquinolones and aminocoumarins usually block ATPase activity to hinder the biological activities of topoisomerase II. Thus, the topoisomerase ATPase assay can be used for high-throughput screening of topoisomerase inhibitors. The ATPase activity of the E. coli ParE enzyme was based on the detection of inorganic phosphate produced by the hydrolysis of ATP in the presence of DNA. The phosphate is detected using a microplate reader at an absorbance wavelength of 650 nm. The selected compounds were tested for the inhibition of ATPase activity of ParE enzyme. […] The reaction mixture was incubated for 1 h at 37°C and then quenched with 45 μL of Dye. Incubate for 5 min, and the absorbance was measured at 650 nm. The IC50 values were determined from the absorbance readings using no enzyme and no compound controls. They were calculated using the non-linear regression curve fit method.

[9] = tested on: Klebsiella pneumonia (NCIM 2706); design: method as in Yele et al., 2020, 2021; conditions: ref Yele et al., 2020, 2021; cited from earlier work
MRSA (ATCC43300) [10] = experiment: Antibacterial susceptibility test, microbroth dilution MIC; format: cell-based, methicillin-resistant Staphylococcus aureus; conditions: mean ± SD
[11] = tested on: Staphylococcus aureus (NCIM 5022); design: method as in Yele et al., 2020, 2021; conditions: ref Yele et al., 2020, 2021; cited from earlier work
[12] = tested on: Escherichia coli (NCIM 2567); design: method as in Yele et al., 2020, 2021; conditions: ref Yele et al., 2020, 2021; cited from earlier work
MRSA (NCIM 5021) [13] = experiment: Minimum bactericidal concentration (MBC); format: cell-based, methicillin-resistant Staphylococcus aureus
Experimental: as §1

MRSA (ATCC43300) [14] = experiment: Minimum bactericidal concentration (MBC); format: cell-based, methicillin-resistant Staphylococcus aureus
Experimental: as §1

MRSA (NCIM 5021) [15] = experiment: Antibacterial susceptibility test, microbroth dilution MIC; format: cell-based, methicillin-resistant Staphylococcus aureus; conditions: mean ± SD

T1 sequence (P20083 whole entry): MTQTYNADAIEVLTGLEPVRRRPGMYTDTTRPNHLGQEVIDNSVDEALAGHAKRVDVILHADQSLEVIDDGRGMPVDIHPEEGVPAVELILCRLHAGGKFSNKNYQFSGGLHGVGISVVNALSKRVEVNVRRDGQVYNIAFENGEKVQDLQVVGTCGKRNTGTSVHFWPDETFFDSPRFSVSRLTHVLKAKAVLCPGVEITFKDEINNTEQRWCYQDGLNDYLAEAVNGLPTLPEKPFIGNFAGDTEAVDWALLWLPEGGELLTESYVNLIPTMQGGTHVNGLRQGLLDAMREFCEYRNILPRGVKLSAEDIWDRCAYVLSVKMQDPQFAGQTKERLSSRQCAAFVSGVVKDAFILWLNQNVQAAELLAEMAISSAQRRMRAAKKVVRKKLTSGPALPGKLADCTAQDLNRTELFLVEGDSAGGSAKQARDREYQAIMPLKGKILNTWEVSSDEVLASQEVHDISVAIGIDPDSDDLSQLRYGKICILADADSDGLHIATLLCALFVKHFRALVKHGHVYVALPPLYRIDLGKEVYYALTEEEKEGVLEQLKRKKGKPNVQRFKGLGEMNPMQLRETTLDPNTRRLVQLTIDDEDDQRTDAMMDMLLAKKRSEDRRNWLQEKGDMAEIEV
T1 sequence (P0AFI2 whole entry, further chain): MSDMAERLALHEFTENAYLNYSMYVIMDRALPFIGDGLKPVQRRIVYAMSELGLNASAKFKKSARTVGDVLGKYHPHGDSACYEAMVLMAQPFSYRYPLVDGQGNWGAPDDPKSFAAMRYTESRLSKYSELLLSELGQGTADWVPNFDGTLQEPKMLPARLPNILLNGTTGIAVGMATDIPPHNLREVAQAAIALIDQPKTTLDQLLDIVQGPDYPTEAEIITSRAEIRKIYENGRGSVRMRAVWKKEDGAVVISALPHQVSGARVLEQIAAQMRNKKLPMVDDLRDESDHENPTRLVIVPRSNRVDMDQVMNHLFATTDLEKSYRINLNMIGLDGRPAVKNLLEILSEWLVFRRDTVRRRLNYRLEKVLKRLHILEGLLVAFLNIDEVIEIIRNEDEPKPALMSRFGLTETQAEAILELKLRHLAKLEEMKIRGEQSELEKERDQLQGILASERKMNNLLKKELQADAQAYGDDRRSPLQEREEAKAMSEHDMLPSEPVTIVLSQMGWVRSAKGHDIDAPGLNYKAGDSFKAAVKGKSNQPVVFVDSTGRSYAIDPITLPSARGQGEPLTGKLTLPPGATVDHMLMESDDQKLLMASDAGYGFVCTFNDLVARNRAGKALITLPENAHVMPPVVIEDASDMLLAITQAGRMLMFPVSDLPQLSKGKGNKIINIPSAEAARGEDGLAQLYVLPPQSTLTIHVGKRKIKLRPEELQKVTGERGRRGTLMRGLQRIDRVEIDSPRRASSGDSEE

## CNC(C)C1CCC(N)C(OC2C(N)CC(N)C(OC3OCC(C)(O)C(NC)C3O)C2O)O1 (centres unmarked) [Gentamicin]
E. coli [1]; 1 × mic
  PAE = T - C: 0 h
  Time for 1 log10: 2 h
E. coli [1]; 10 × mic
  PAE = T - C: 1 h
  Time for 1 log10: 3 h
E. coli [2]; FIC of compound 5 in combination
  FIC A: 0.1453
E. coli [2]; FIC of compound 21 in combination with the row's drug
  FIC A: 0.1907
E. coli [2]; FIC of the drug in combination with compound 5
  FIC B: 0.1254
E. coli [2]; FIC of the drug in combination with compound 21
  FIC B: 0.1510
E. coli [2]; drug combined with compound 5
  Inference: Synergistic (synergistic when the ΣFICs is ≤ 0.5)
E. coli [2]; drug combined with compound 21
  Inference: Synergistic (synergistic when the ΣFICs is ≤ 0.5)
  ΣFIC A + FIC B: 0.3417

## COc1ccc(OCC(=O)Nc2ccc(C(=O)O)cc2)cc1 [Compound 27]
[3]
  Minimum inhibitory concentration (MIC) B. s: 3.06
[4]
  Minimum inhibitory concentration: 1.59 ± 0.38 µg/mL (≈ 5.28 µM)
[5]
  Minimum inhibitory concentration (MIC) S. e: 0.94
[6]
  MBC: 1.59 ± 0.38 µg/mL (≈ 5.28 µM)
  MBC/MIC: 1
[7]
  Minimum inhibitory concentration (MIC) P. a: 2.21
[8]
  Minimum inhibitory concentration (MIC) M. t: 0.79
E. coli ParE enzyme
  IC50 against E. coli ParE enzyme: 1.30 µg/mL (≈ 4.31 µM)
[9]
  Minimum inhibitory concentration (MIC) K. p: 1.40
MRSA (ATCC43300) [10]
  Minimum inhibitory concentration: 1.06 ± 0.14 µg/mL (≈ 3.52 µM)
[11]
  Minimum inhibitory concentration (MIC) S. a: 0.94
[12]
  Minimum inhibitory concentration (MIC) E. c: 0.98
MRSA (NCIM 5021) [13]
  MBC: 3.55 ± 0.07 µg/mL (≈ 11.8 µM)
  MBC/MIC: 2
MRSA (ATCC43300) [14]
  MBC: 1.06 ± 0.14 µg/mL (≈ 3.52 µM)
  MBC/MIC: 1
MRSA (NCIM 5021) [15]
  Minimum inhibitory concentration: 1.71 ± 0.24 µg/mL (≈ 5.68 µM)

## O=C(CSc1nc2ccccc2s1)Nc1ccccc1 [Compound 23]
[3]
  Minimum inhibitory concentration (MIC) B. s: 1.27
[4]
  Minimum inhibitory concentration: 0.95 ± 0.05 µg/mL (≈ 3.16 µM)
[5]
  Minimum inhibitory concentration (MIC) S. e: 1.51
[6]
  MBC: 0.95 ± 0.05 µg/mL (≈ 3.16 µM)
  MBC/MIC: 1
[7]
  Minimum inhibitory concentration (MIC) P. a: 1.88
[8]
  Minimum inhibitory concentration (MIC) M. t: 1.74
E. coli ParE enzyme
  IC50 against E. coli ParE enzyme: 1.76 µg/mL (≈ 5.86 µM)
[9]
  Minimum inhibitory concentration (MIC) K. p: 1.62
MRSA (ATCC43300) [10]
  Minimum inhibitory concentration: 0.75 ± 0.11 µg/mL (≈ 2.5 µM)
[11]
  Minimum inhibitory concentration (MIC) S. a: 1.84
[12]
  Minimum inhibitory concentration (MIC) E. c: 2.11
MRSA (NCIM 5021) [13]
  MBC: 0.94 ± 0.04 µg/mL (≈ 3.13 µM)
  MBC/MIC: 1
MRSA (ATCC43300) [14]
  MBC: 0.75 ± 0.11 µg/mL (≈ 2.5 µM)
  MBC/MIC: 1
MRSA (NCIM 5021) [15]
  Minimum inhibitory concentration: 0.94 ± 0.04 µg/mL (≈ 3.13 µM)

## O=C(COc1ccccc1NC(=O)CCl)Nc1cccc(Cl)c1 [Compound 10]
[3]
  Minimum inhibitory concentration (MIC) B. s: 1.97
[4]
  Minimum inhibitory concentration: 0.83 ± 0.05 µg/mL (≈ 2.35 µM)
[5]
  Minimum inhibitory concentration (MIC) S. e: 1.95
[6]
  MBC: 0.83 ± 0.05 µg/mL (≈ 2.35 µM)
  MBC/MIC: 1
[7]
  Minimum inhibitory concentration (MIC) P. a: 10.81
[8]
  Minimum inhibitory concentration (MIC) M. t: 5.26
E. coli ParE enzyme
  IC50 against E. coli ParE enzyme: 1.84 µg/mL (≈ 5.21 µM)
[9]
  Minimum inhibitory concentration (MIC) K. p: 14.70
MRSA (ATCC43300) [10]
  Minimum inhibitory concentration: 0.88 ± 0.10 µg/mL (≈ 2.49 µM)
[11]
  Minimum inhibitory concentration (MIC) S. a: 0.92
[12]
  Minimum inhibitory concentration (MIC) E. c: 7.07
MRSA (NCIM 5021) [13]
  MBC: 0.82 ± 0.03 µg/mL (≈ 2.32 µM)
  MBC/MIC: 1
MRSA (ATCC43300) [14]
  MBC: 0.88 ± 0.10 µg/mL (≈ 2.49 µM)
  MBC/MIC: 1
MRSA (NCIM 5021) [15]
  Minimum inhibitory concentration: 0.82 ± 0.03 µg/mL (≈ 2.32 µM)

## Cc1ccc(S(=O)(=O)NC(=O)COc2ccccc2NC(=O)CCl)cc1 [Compound 18]
[3]
  Minimum inhibitory concentration (MIC) B. s: 3.52
[4]
  Minimum inhibitory concentration: 1.42 ± 0.23 µg/mL (≈ 3.58 µM)
[5]
  Minimum inhibitory concentration (MIC) S. e: 3.96
[6]
  MBC: 1.42 ± 0.23 µg/mL (≈ 3.58 µM)
  MBC/MIC: 1
[7]
  Minimum inhibitory concentration (MIC) P. a: 4.67
[8]
  Minimum inhibitory concentration (MIC) M. t: 4.62
E. coli ParE enzyme
  IC50 against E. coli ParE enzyme: 1.81 µg/mL (≈ 4.56 µM)
[9]
  Minimum inhibitory concentration (MIC) K. p: 5.25
MRSA (ATCC43300) [10]
  Minimum inhibitory concentration: 1.74 ± 0.21 µg/mL (≈ 4.38 µM)
[11]
  Minimum inhibitory concentration (MIC) S. a: 2.48
[12]
  Minimum inhibitory concentration (MIC) E. c: 5.20
MRSA (NCIM 5021) [13]
  MBC: 1.81 ± 0.40 µg/mL (≈ 4.56 µM)
  MBC/MIC: 1
MRSA (ATCC43300) [14]
  MBC: 3.74 ± 0.16 µg/mL (≈ 9.42 µM)
  MBC/MIC: 2
MRSA (NCIM 5021) [15]
  Minimum inhibitory concentration: 1.81 ± 0.40 µg/mL (≈ 4.56 µM)

## O=C(COc1ccccc1NC(=O)CCl)Nc1ccc(S(=O)(=O)O)cc1 [Compound 6]
[3]
  Minimum inhibitory concentration (MIC) B. s: 3.56
[4]
  Minimum inhibitory concentration: 1.56 ± 0.30 µg/mL (≈ 3.91 µM)
[5]
  Minimum inhibitory concentration (MIC) S. e: 7.89
[6]
  MBC: 3.7 ± 0.12 µg/mL (≈ 9.28 µM)
  MBC/MIC: 3
[7]
  Minimum inhibitory concentration (MIC) P. a: 0.64
[8]
  Minimum inhibitory concentration (MIC) M. t: 15.23
E. coli ParE enzyme
  IC50 against E. coli ParE enzyme: 1.19 µg/mL (≈ 2.98 µM)
[9]
  Minimum inhibitory concentration (MIC) K. p: 0.78
MRSA (ATCC43300) [10]
  Minimum inhibitory concentration: 1.71 ± 0.21 µg/mL (≈ 4.29 µM)
[11]
  Minimum inhibitory concentration (MIC) S. a: 5.23
[12]
  Minimum inhibitory concentration (MIC) E. c: 0.86
MRSA (NCIM 5021) [13]
  MBC: 7.39 ± 0.18 µg/mL (≈ 18.5 µM)
  MBC/MIC: 4
MRSA (ATCC43300) [14]
  MBC: 4.56 ± 0.08 µg/mL (≈ 11.4 µM)
  MBC/MIC: 3
MRSA (NCIM 5021) [15]
  Minimum inhibitory concentration: 1.86 ± 0.10 µg/mL (≈ 4.66 µM)

## O=C(COc1ccc2ccccc2c1)Nc1ccc(Cl)cc1 [Compound 29]
[3]
  Minimum inhibitory concentration (MIC) B. s: 4.69
[4]
  Minimum inhibitory concentration: 0.81 ± 0.14 µg/mL (≈ 2.6 µM)
[5]
  Minimum inhibitory concentration (MIC) S. e: 4.70
[6]
  MBC: 0.81 ± 0.14 µg/mL (≈ 2.6 µM)
  MBC/MIC: 1
[7]
  Minimum inhibitory concentration (MIC) P. a: 5.48
[8]
  Minimum inhibitory concentration (MIC) M. t: 0.77
E. coli ParE enzyme
  IC50 against E. coli ParE enzyme: 2.77 µg/mL (≈ 8.88 µM)
[9]
  Minimum inhibitory concentration (MIC) K. p: 0.88
MRSA (ATCC43300) [10]
  Minimum inhibitory concentration: 0.91 ± 0.11 µg/mL (≈ 2.92 µM)
[11]
  Minimum inhibitory concentration (MIC) S. a: 0.90
[12]
  Minimum inhibitory concentration (MIC) E. c: 0.77
MRSA (NCIM 5021) [13]
  MBC: 0.75 ± 0.19 µg/mL (≈ 2.41 µM)
  MBC/MIC: 1
MRSA (ATCC43300) [14]
  MBC: 0.91 ± 0.11 µg/mL (≈ 2.92 µM)
  MBC/MIC: 1
MRSA (NCIM 5021) [15]
  Minimum inhibitory concentration: 0.75 ± 0.19 µg/mL (≈ 2.41 µM)
